Measurements: patent US9849116B2 (KNOPP BIOSCIENCES LLC, priority 2008, dated 2017)
Read-outs that look alike come from different tables or passages of the source.

Experiments:
D2 dopamine receptor = settings: read-out: D2 binding, IC50, cited from earlier work
D1 dopamine receptor = D1 dopamine receptor (Homo sapiens, UniProt P21728)
Description: (§1) These concentrations were tested in cell lines expressing select human cloned dopamine receptors (D2S, D3).

D5 dopamine receptor = D5 dopamine receptor (Homo sapiens, UniProt P21918)
Description: as §1

male beagle dogs = settings: based on dog data
rodents [1] = settings: in vivo
[2] = test system: monkeys treated with MPTP; settings: monkey, in vivo
rodents [3] = settings: single oral dose; cited from earlier work
dogs = settings: single oral dose; cited from earlier work
monkeys = settings: single oral dose; cited from earlier work
human subjects = settings: cited from earlier work
[4] = test system: monkeys treated with MPTP; settings: cited from earlier work
[5] = test system: Parkinson's disease patients; settings: treatment of Parkinson's disease; cited from earlier work
[6] = test system: restless legs syndrome patients; settings: treatment of restless legs syndrome; cited from earlier work
[7] = cited from earlier work
[8] = Lit.* Schneider & Mierau 1987 J. Med. Chem. 30: 494-498
[9] = Lit.** Wong & Shrikhande 2003 Society for Neuroscience Abstracts

Sequence of D1 dopamine receptor (P21728 whole entry): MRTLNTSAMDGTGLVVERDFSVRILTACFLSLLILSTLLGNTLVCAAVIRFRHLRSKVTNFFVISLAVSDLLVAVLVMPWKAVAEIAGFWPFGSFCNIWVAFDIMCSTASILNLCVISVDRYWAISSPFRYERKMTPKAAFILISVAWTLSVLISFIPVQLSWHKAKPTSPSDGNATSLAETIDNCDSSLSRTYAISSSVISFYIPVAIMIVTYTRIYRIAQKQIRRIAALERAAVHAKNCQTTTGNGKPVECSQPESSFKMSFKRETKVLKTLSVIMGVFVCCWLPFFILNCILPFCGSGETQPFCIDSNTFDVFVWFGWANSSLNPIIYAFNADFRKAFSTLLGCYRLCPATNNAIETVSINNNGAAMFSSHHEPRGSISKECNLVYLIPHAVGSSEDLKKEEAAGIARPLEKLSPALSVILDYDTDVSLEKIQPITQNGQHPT
Sequence of D5 dopamine receptor (P21918 whole entry): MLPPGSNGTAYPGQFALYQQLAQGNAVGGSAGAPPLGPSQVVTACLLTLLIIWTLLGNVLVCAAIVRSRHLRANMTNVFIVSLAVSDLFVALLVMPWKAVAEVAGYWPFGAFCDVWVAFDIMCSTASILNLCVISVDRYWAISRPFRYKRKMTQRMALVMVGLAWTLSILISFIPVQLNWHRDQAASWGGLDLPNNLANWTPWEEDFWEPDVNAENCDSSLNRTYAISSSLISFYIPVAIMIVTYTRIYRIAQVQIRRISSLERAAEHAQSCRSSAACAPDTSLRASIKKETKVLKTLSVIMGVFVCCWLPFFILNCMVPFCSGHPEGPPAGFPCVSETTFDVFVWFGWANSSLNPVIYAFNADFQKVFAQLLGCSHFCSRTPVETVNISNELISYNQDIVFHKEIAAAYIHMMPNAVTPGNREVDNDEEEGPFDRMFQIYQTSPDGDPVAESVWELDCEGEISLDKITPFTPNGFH

| Structure (SMILES) | IC50 (D2 dopamine receptor; [8]) [µM] | IC50 (D2 dopamine receptor; [9]) [µM] | interaction with D1 dopamine receptor (D1 dopamine receptor) | interaction with D5 dopamine receptor (D5 dopamine receptor) | human equivalent dose of the NOAEL for a 70 kg individual (male beagle dogs) [mg] | human equivalence dose of the MTD (male beagle dogs; 70 kg human subject) [mg] | human dose equivalent to the lethal dose in rodents (rodents [1]) [mg/kg] | human dose equivalent to the lethal dose in rodents, 70 kg individual (rodents [1]) [mg] | human dose equivalent to the lowest effective oral dose in monkeys [2] [mg/kg] | human dose equivalent to the lowest effective oral dose in monkeys, 70 kg individual [2] [mg] | doses at which deaths occurred (and above) (rodents [3]) [mg/kg] | dose at which vomiting occurred (and above) (dogs) [mg/kg] | dose at which major excitation was displayed (monkeys) [mg/kg] | dose shown to cause somnolence (human subjects; human subjects) [mg] | starting daily dose not tolerated (human subjects; naïve patient) | lowest effective oral dose [4] [mg/kg] | lowest effective oral dose with a significant effect versus placebo [5] [mg/day] | lowest effective dose with a significant effect versus placebo [6] [mg/day] | MRTD ([7]; FDA MRTD database) [mg/kg/day] | MRTD ([7]; for a 70 lb. person) [mg/day] |
| --- | --- | --- | --- | --- | --- | --- | --- | --- | --- | --- | --- | --- | --- | --- | --- | --- | --- | --- | --- | --- |
| CCCN[C@H]1CCc2nc(N)sc2C1 [(S)-pramipexole, (6S)-4,5,6,7-tetrahydro-N6-propyl-2,6-benzothiazole-diamine] | – | – | no significant interaction | no significant interaction | 0.05 | 0.30 | […] | 500 to 850 | […] | […] | […] | […] | 3.5 | […] | […] | 0.053 | […] | […] | […] | […] |
